Results from the supplement of paper PMC4862054.
“And” between values parts separate entries of the source, which are not always exact repeats. Equal values may be shown once.

Legend:
HDQ-P1 [1] = details: 72 h
Method in brief: (§1)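 The plates used were 384-well plates holding compound at 5 concentrations in 10-fold steps across a compound-specific 10,000-fold range, into which breast cancer cell lines were seeded in 20 µl suspension. Following 72 h incubation, CellTox Green fluorescence was read at 485/520 nm, and CellTiter-Glo luminescence was read after 10 min at room temperature. Normalisation on each plate used 0.1 % DMSO and a positive kill control. Dose-response curves gave the EC50, which was censored at the top concentration.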

BT-474 [2] = details: 72 h
Method in brief: as §1

MDA-MB-468 [3] = details: 72 h
Method in brief: as §1

MDA-MB-468 [4] = experiment: normalised viability (% of control), CellTiter-Blue; higher = more viable cells (about 100 = DMSO control); details: incubation time: 72 h
Method in brief: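 The reported quantity is normalised viability at a single listed concentration of the series. Compound in 5 µl medium was pre-dispensed into 384-well plates and 20 µl of breast cancer cell suspension was added for 72 h. A 2 h, 37 °C CellTiter-Blue step (2.5 µl) preceded fluorescence reading at 560/590 nm, and plates were normalised to vehicle (100) and a positive kill control (0).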

Hs578T = experiment: normalised response (% of control), CellTiter-Glo; higher = more viable cells (100 = DMSO, 0 = benzethonium chloride kill control); details: incubation time: 72 h
Method in brief: (§2)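 Every value is a normalised signal taken at one concentration of a dilution series. Compound was placed in 384-well plates at 5 concentrations in 10-fold steps over a compound-specific 10,000-fold range, and 20 µl of breast cancer cell suspension was seeded onto it. After 72 h, CellTox Green fluorescence (485/520 nm) was measured first and CellTiter-Glo luminescence second, following 10 min at room temperature. Each plate was scaled to 0.1 % DMSO (100) and a positive kill control (0).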

CAL-120 = experiment: as above; details: incubation time: 72 h
Method in brief: as §2

HDQ-P1 [5] = experiment: as above; details: incubation time: 72 h
Method in brief: as §2

MDA-MB-436 = experiment: as above; details: incubation time: 72 h
Method in brief: as §2

MCF-10A = experiment: as above; details: incubation time: 72 h
Method in brief: as §2

HCC1599 = experiment: as above; details: incubation time: 72 h
Method in brief: as §2

HCC1143 = experiment: as above; details: incubation time: 72 h
Method in brief: as §2

MFM-223 = experiment: as above; details: incubation time: 72 h
Method in brief: as §2

HCC1937 = experiment: as above; details: incubation time: 72 h
Method in brief: as §2

CAL-148 [6] = experiment: as above; details: incubation time: 72 h
Method in brief: as §2

DU-4475 [7] = experiment: as above; details: incubation time: 72 h
Method in brief: as §2

BT-474 [8] = experiment: as above; details: incubation time: 72 h
Method in brief: as §2

CAL-51 [9] = experiment: as above; details: incubation time: 72 h
Method in brief: as §2

BT-549 = experiment: as above; details: incubation time: 72 h
Method in brief: as §2

MDA-MB-231 = experiment: as above; details: incubation time: 72 h
Method in brief: as §2

CAL-85-1 [10] = experiment: as above; details: incubation time: 72 h
Method in brief: as §2

MDA-MB-453 [11] = experiment: as above; details: incubation time: 72 h
Method in brief: as §2

SK-BR-3 = experiment: as above; details: incubation time: 72 h
Method in brief: as §2

MDA-MB-468 [12] = experiment: as above; details: incubation time: 72 h
Method in brief: as §2

HDQ-P1 [13] = experiment: normalised viability (% of control), CellTiter-Blue; higher = more viable cells (about 100 = DMSO control); details: incubation time: 72 h
Method: (§3)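 DSRT, CellTiter-Blue viability, 72 h incubation. Signal is normalised to DMSO and benzethonium chloride controls. Value is the normalised response at dose 7.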

CAL-148 [14] = experiment: as above; details: incubation time: 72 h
Method: as §3

DU-4475 [15] = experiment: as above; details: incubation time: 72 h
Method: as §3

CAL-51 [16] = experiment: as above; details: incubation time: 72 h
Method: as §3

CAL-85-1 [17] = experiment: as above; details: incubation time: 72 h
Method: as §3

MDA-MB-453 [18] = experiment: as above; details: incubation time: 72 h
Method: as §3

## Cc1ccc([N+](=O)[O-])cc1S(=O)(=O)N(C)/N=C/c1cnc2ccc(Br)cn12 [PIK-75]
HDQ-P1 [1]
  EC50, CellTiter-Glo: 32.5 nM
BT-474 [2]
  EC50, CellTiter-Glo: 26.1 nM
MDA-MB-468 [3]
  EC50, CellTiter-Glo: 27.4 nM

## COc1cc2c(cc1O)CC[C@@H]1[C@@H]2CC[C@]2(C)[C@@H](O)CC[C@@H]12 [2-methoxyestradiol]
MDA-MB-468 [4]; 10 nM
  normalised viability: 111%
MDA-MB-468 [4]; 1000 nM
  normalised viability: 97.2%
MDA-MB-468 [4]; 10000 nM
  normalised viability: 50.1%
HDQ-P1 [1]
  EC50, CellTiter-Glo: 7460 nM
BT-474 [2]
  EC50, CellTiter-Glo: 573 nM
MDA-MB-468 [3]
  EC50, CellTiter-Glo: 2800 nM

## O=C1CN2Cc3c(ccc(Cl)c3Cl)N=C2N1 [Anagrelide]
MDA-MB-468 [4]; 10 nM
  normalised viability: 106%
MDA-MB-468 [4]; 1000 nM
  normalised viability: 103%
MDA-MB-468 [4]; 10000 nM
  normalised viability: 111%
BT-474 [2]
  EC50, CellTiter-Glo: > 10000 nM

## CC(=O)c1c(C)c2cnc(Nc3ccc(N4CCNCC4)cn3)nc2n(C2CCCC2)c1=O [Palbociclib]
BT-474 [2]
  EC50, CellTiter-Glo: 352 nM
MDA-MB-468 [3]
  EC50, CellTiter-Glo: 181 nM

## CC(=O)N(O)CCCCCNC(=O)CCC(=O)N(O)CCCCCNC(=O)CCC(=O)N(O)CCCCCN [Deferoxamine]
HDQ-P1 [1]
  EC50, CellTiter-Glo: 1850 nM
MDA-MB-468 [3]
  EC50, CellTiter-Glo: 815 nM

## Cn1cnc2c(F)c(Nc3ccc(Br)cc3Cl)c(C(=O)NOCCO)cc21 [Selumetinib]
MDA-MB-468 [4]; 10 nM
  normalised viability: 106%
MDA-MB-468 [4]; 1000 nM
  normalised viability: 95%
MDA-MB-468 [4]; 10000 nM
  normalised viability: 69.5%
HDQ-P1 [1]
  EC50, CellTiter-Glo: 44.8 nM
BT-474 [2]
  EC50, CellTiter-Glo: 361 nM
MDA-MB-468 [3]
  EC50, CellTiter-Glo: 5030 nM

## CC1(C)CNc2cc(NC(=O)c3cccnc3NCc3ccncc3)ccc21 [Motesanib]
MDA-MB-468 [4]; 10 nM
  normalised viability: 88.3%
MDA-MB-468 [4]; 1000 nM
  normalised viability: 85.3%
MDA-MB-468 [4]; 10000 nM
  normalised viability: 88.2%
MDA-MB-468 [3]
  EC50, CellTiter-Glo: > 10000 nM

## CC(=O)O[C@@]12CO[C@@H]1C[C@H](O)[C@@]1(C)C(=O)[C@H](O)C3=C(C)[C@@H](OC(=O)[C@H](O)[C@@H](NC(=O)OC(C)(C)C)c4ccccc4)C[C@@](O)([C@@H](OC(=O)c4ccccc4)[C@H]21)C3(C)C [Docetaxel]
MDA-MB-468 [4]; 1 nM
  normalised viability: 69.7% and 68.9%
MDA-MB-468 [4]; 100 nM
  normalised viability: 53% and 46.7%
MDA-MB-468 [4]; 1000 nM
  normalised viability: 46.3% and 52.4%
HDQ-P1 [1]
  EC50, CellTiter-Glo: 2.08 nM
BT-474 [2]
  EC50, CellTiter-Glo: 7.47 nM
MDA-MB-468 [3]
  EC50, CellTiter-Glo: 0.68 nM

## CC(C)(C)c1cnc(CSc2cnc(NC(=O)C3CCNCC3)s2)o1 [SNS-032]
MDA-MB-468 [4]; 10 nM
  normalised viability: 114%
MDA-MB-468 [4]; 1000 nM
  normalised viability: 11.3%
MDA-MB-468 [4]; 10000 nM
  normalised viability: 5.84%
HDQ-P1 [1]
  EC50, CellTiter-Glo: 50 nM
BT-474 [2]
  EC50, CellTiter-Glo: 112 nM
MDA-MB-468 [3]
  EC50, CellTiter-Glo: 36 nM

## Nc1ncn([C@@H]2O[C@H](CO)[C@@H](O)[C@H]2O)c(=O)n1 [Azacitidine]
MDA-MB-468 [4]; 10 nM
  normalised viability: 110%
MDA-MB-468 [4]; 1000 nM
  normalised viability: 40.7%
MDA-MB-468 [4]; 10000 nM
  normalised viability: 20.9%
HDQ-P1 [1]
  EC50, CellTiter-Glo: 2470 nM
BT-474 [2]
  EC50, CellTiter-Glo: 2290 nM
MDA-MB-468 [3]
  EC50, CellTiter-Glo: 574 nM

## COc1cc(F)c(F)c(Nc2ccc(I)cc2F)c1NS(=O)(=O)C1(C[C@H](O)CO)CC1 [Refametinib]
HDQ-P1 [1]
  EC50, CellTiter-Glo: 119 nM
BT-474 [2]
  EC50, CellTiter-Glo: 644 nM
MDA-MB-468 [3]
  EC50, CellTiter-Glo: 2240 nM

## Nc1ncn([C@@H]2O[C@H](CO)[C@@H](O)[C@H]2O)c(=O)n1 [Azacitidine] (1000 nM)
Hs578T
  normalised response: 102%
CAL-120
  normalised response: 91.1%
HDQ-P1 [5]
  normalised response: 96.4%
MDA-MB-436
  normalised response: 79.1%
MCF-10A
  normalised response: 110%
HCC1599
  normalised response: 84.9%
HCC1143
  normalised response: 99.5%
MFM-223
  normalised response: 96.7%
HCC1937
  normalised response: 90.9%
CAL-148 [6]
  normalised response: 96.2%
DU-4475 [7]
  normalised response: 90.5%
BT-474 [8]
  normalised response: 96.7%
CAL-51 [9]
  normalised response: 119%
BT-549
  normalised response: 80.5%
MDA-MB-231
  normalised response: 97.4%
CAL-85-1 [10]
  normalised response: 106%
MDA-MB-453 [11]
  normalised response: 96.8%
SK-BR-3
  normalised response: 91.7%
MDA-MB-468 [12]
  normalised response: 39%
HDQ-P1 [13]
  normalised viability: 106%
CAL-148 [14]
  normalised viability: 97.3%
DU-4475 [15]
  normalised viability: 116%
CAL-51 [16]
  normalised viability: 96.7%
CAL-85-1 [17]
  normalised viability: 91.4%
MDA-MB-453 [18]
  normalised viability: 98.9%

## C[C@]1(O)C[C@@H](c2nc(-c3ccc4ccc(-c5ccccc5)nc4c3)c3c(N)nccn32)C1 [Linsitinib]
HDQ-P1 [1]
  EC50, CellTiter-Glo: 1010 nM
BT-474 [2]
  EC50, CellTiter-Glo: 1090 nM
MDA-MB-468 [3]
  EC50, CellTiter-Glo: 4140 nM
